Source: PubChem BioAssay (NCI)
“And” between values parts separate entries of the source, which are not always exact repeats. Equal values may be shown once.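 Cultured in 96-well plates, cells were exposed to test compound for 48 hours across five concentrations. At the GI50, growth is halved. TGI: concentration producing complete growth inhibition.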

Assays:
Test in all cases: DTP human tumour cell line panel, 48 h
[1] = system: A498 renal
[2] = system: HCT-15 colon
[3] = system: PC-3 prostate
[4] = system: SK-MEL-2 melanoma
[5] = system: SK-MEL-28 melanoma
[6] = system: SK-MEL-5 melanoma
[7] = system: SN12C renal
[8] = system: T-47D breast
[9] = system: TK-10 renal
[10] = system: UACC-257 melanoma

| SMILES | GI50 [1] | TGI [1] | GI50 [2] | TGI [2] | GI50 [3] | TGI [3] | GI50 [4] | TGI [4] | GI50 [5] | TGI [5] | GI50 [6] | TGI [6] | GI50 [7] | TGI [7] | GI50 [8] | TGI [8] | GI50 [9] | TGI [9] | GI50 [10] | TGI [10] |
| --- | --- | --- | --- | --- | --- | --- | --- | --- | --- | --- | --- | --- | --- | --- | --- | --- | --- | --- | --- | --- |
| CCOc1ccc2nc3cc(N)ccc3c(N)c2c1 | 2.78 µM and 12.7 µM | 29.1 µM and 37.5 µM | 23.2 µM and 12.1 µM | > 100 µM and 33.7 µM | 3.85 µM and 2.99 µM | 16.1 µM and 12.7 µM | 2.36 µM and 2.22 µM | 6.19 µM and 5.86 µM | 4.4 µM and 4.3 µM | 15.7 µM and 15.9 µM | 3.31 µM and 3.03 µM | 13.3 µM and 12.8 µM | 0.661 µM and 0.298 µM | 6.45 µM and 2.1 µM | 0.336 µM and 0.385 µM | 1.57 µM and 2.4 µM | 20.9 µM and 12.7 µM | 46.8 µM and 34.8 µM | 11 µM and 5.67 µM | 28.6 µM and 21 µM |
| O=C(O)c1c2c(c(O)c3c1CN(C1CCCCC1)CO3)OCN(C1CCCCC1)C2 | – | > 100 µM | – | > 100 µM | – | > 100 µM | – | > 100 µM | – | > 100 µM | – | > 100 µM | – | 72.9 µM | – | > 100 µM | – | > 100 µM | – | > 100 µM |
| O=C(O)CN(CCN(CC(=O)O)CC(=O)O)CCN(CC(=O)O)CC(=O)O | 1.86 µM | 15.1 µM | 3.67 µM | 20.9 µM | 5.46 µM | > 100 µM | 3.16 µM | 9.8 µM | 4.05 µM | 17.2 µM | 2.92 µM | 9.07 µM | 2.8 µM | 13.9 µM | 3.74 µM | 14.5 µM | 2.87 µM | 7.52 µM | 4.35 µM | 18.8 µM |
| CC(=O)Nc1ccc(CC[C@H]2CCC/C=C/[C@@H]3C[C@H](O)C[C@H]3[C@H](O)/C=C/C(=O)O2)cc1 | 0.016 µM | 0.0475 µM | 0.471 µM | > 100 µM | 0.353 µM | > 100 µM | 0.313 µM | 0.963 µM | 0.0362 µM | 0.197 µM | 0.0188 µM | 0.0348 µM | 0.333 µM | > 100 µM | 0.29 µM | – | 0.172 µM | 1.06 µM | 0.0596 µM | > 100 µM |
| COc1ccc2c(c1[N+](=O)[O-])CC[C@@H]1[C@@H]2CC[C@]2(C)C(=O)CC[C@@H]12 | 352 µM | > 25 µM and 791 µM | > 1000 µM | > 1000 µM | > 684 µM | – | 275 µM | – | > 843 µM | – | 502 µM | > 1000 µM | 983 µM | > 1000 µM | 675 µM | > 1000 µM | 577 µM | > 1000 µM | > 931 µM | > 1000 µM |
| CCCCCCCCCCCC1=NC(C)(C)CN1C(C)C | 4.78 µM | 19.3 µM | 2.63 µM | 8.76 µM | 2.12 µM | 11.1 µM | 3.2 µM | 10 µM | 1.78 µM | 3.37 µM | 2.05 µM | 4.34 µM | 4.04 µM | 16.7 µM | 2.9 µM | 8.73 µM | 4.02 µM | 16.1 µM | 2.49 µM | 6.02 µM |
| Clc1ccc2c(NCCCCNc3nc(N4CCOCC4)nc4ccccc34)ccnc2c1 | 1.83 µM | 4.28 µM | 2.75 µM | 11.4 µM | 6.37 µM | 19.5 µM | 2.23 µM | 5.02 µM | 2.03 µM | 4.03 µM | 1.83 µM | 3.3 µM | 2.03 µM | 4.31 µM | 2.23 µM | 6.82 µM | 1.92 µM | 3.61 µM | 15.2 µM | 29.9 µM |
| CCCCCCCCCCCC(c1ccccc1)[N+](C)(C)C (stereo unspecified) | 1.99 µM | 7.24 µM | 14.1 µM | 37 µM | 0.393 µM | 2.52 µM | 1.51 µM | 3.06 µM | 1.49 µM | 3.31 µM | 0.874 µM | 2.11 µM | 1.59 µM | 3.77 µM | 1.9 µM | 9.79 µM | 0.788 µM | 2.49 µM | 1.37 µM | 2.98 µM |
| CC(C)(C)CNCCO | – | > 100 µM | – | > 100 µM | – | > 100 µM | – | > 100 µM | – | > 100 µM | – | > 100 µM | – | > 100 µM | – | > 100 µM | – | > 100 µM | – | > 100 µM |
| O=C(Nc1ccccc1/C=C/c1n[nH]c2ccccc12)c1ccccc1 | 1.42 µM | 3.21 µM | 2.37 µM | 8.53 µM | 2.15 µM | 7.58 µM | 5.03 µM | 16.5 µM | 4.31 µM | 17.7 µM | 3.81 µM | 16.5 µM | 2 µM | 5.4 µM | 3.77 µM | 15.8 µM | 4.85 µM | 16 µM | 2.36 µM | 16.5 µM |
| CC(C)Cn1cnc2c(N)nc3ccccc3c21 | 47.8 µM | > 100 µM | 29.7 µM | > 100 µM | 34.7 µM | > 100 µM | 41.5 µM | > 100 µM | > 74.9 µM | > 100 µM | 18.4 µM | 50.3 µM | 78.8 µM | > 100 µM | 41.6 µM | > 100 µM | 94.8 µM | > 100 µM | 33.7 µM | > 91.5 µM |
| COCCn1c(Nc2ccc(C(=O)NO)cc2)nc2ccccc21 | 2.64 µM | 9.17 µM | 9.14 µM | 31.5 µM | 8.78 µM | > 100 µM | 5.33 µM | 50.3 µM | 4.94 µM | 21 µM | 3.55 µM | 12.9 µM | 7.28 µM | 47.4 µM | 3.03 µM | > 100 µM | 3.19 µM | 44.6 µM | 1.77 µM | 14.1 µM |
| C=CCn1c(SCC(=O)Nc2ccc(C(=O)/C=C/c3cc(OC)c(OC)c(OC)c3)cc2)nnc1-c1cc(OC)c(OC)c(OC)c1 | 7.4 µM | 20.3 µM | 1.86 µM | 5.61 µM | 4.29 µM | 22.6 µM | 14.8 µM | 45.3 µM | 3.29 µM | 32.3 µM | 4.27 µM | 16 µM | 4.74 µM | > 100 µM | 5.44 µM | 40.7 µM | 23.3 µM | 58.8 µM | 7.45 µM | 36 µM |
